According to US9428507B2, “Compounds for the treatment of malaria” (The Broad Institute, Inc., priority 2013, dated 2016):

Columns and labels:
[1] = system: Dd2 strain of P. falciparum; assay: Activity against the Dd2 strain of P. falciparum (SYBR Green I, 72-h incubation); format: cell-based; conditions: Plasmodium falciparum, DD2, 72 h, read-out: EC^50 Dd2
Method in brief: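 Dd2 parasites at 1% parasitemia and 1.0% hematocrit in albumax II screening medium, 72 h at 37° C under 93% N2/4% CO2/3% O2; final DMSO 0.125%. Growth read as SYBR Green I fluorescence (485/530 nm) after lysis and 24 h staining. 20 μM mefloquine defined background, DMSO baseline.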

[2] = system: P. berghei (ANKA GFP-luc); assay: In vitro P. berghei liver-stage assay in HepG2 cells; format: cell-based; conditions: Plasmodium berghei, 48 hour incubation, read-out: IC50 exo-erythrocytic stage P. berghei
Method: In vitro P. berghei liver-stage assay HepG2 cells were maintained in DMEM, 10% (vol/vol) FBS (Sigma), and 1% (vol/vol) antibiotic-antimycotic in a standard tissue culture incubator (37° C., 5% CO2). P. berghei (ANKA GFP-luc) infected Anopheles stephensi mosquitoes were obtained from the New York University Langone Medical Center Insectary (New York). For assays, ˜17,500 HepG2 cells per well were added to a 384-well microtiter plate in duplicate. After 18-24 h at 37° C. the media was exchanged and compounds were added. After 1 hour, parasites obtained from freshly dissected mosquitoes were added to the plates (4,000 parasites per well), the plates were spun for 10 min at 1,000 rpm, and then the plates were incubated at 37° C. The final assay volume was 30 μL. After a 48 hour incubation at 37° C., Bright-Glo (Promega) was added to the parasite plate to measure relative luminescence. The relative signal intensity of each plate was evaluated with an EnVision (PerkinElmer) system.

[3] = system: P. berghei (ANKA GFP-luc) blood stage parasites; assay: In vivo P. berghei blood-stage assay; set-up: species or system CD-1 mice; conditions: 50 mg/kg 4x, p.o., T/E
Method: CD-1 mice (n=4 per experimental group; female; 6-7-week-old; 20-24 g) were inoculated with 1×10^6 P. berghei (ANKA GFP-luc) blood stage parasites intravenously 24 hours before treatment and compounds were administered orally (at 0 hour). Parasitemia was monitored by the In vivo Imaging System (IVIS 100, Xenogen; Caliper Life Sciences) to acquire the bioluminescence signal. In addition, blood smear samples were obtained from each mouse on day 4 after inoculation, stained with Giemsa, and viewed under a microscope for visual detection of blood parasitemia. Animals with parasitemia exceeding 20% were euthanized.

P. falciparum Dd2 = assay: In vitro P. falciparum blood-stage assay, strain Dd2; format: cell-based; conditions: Plasmodium falciparum
Method: (§1) Strains of Plasmodium falciparum (Dd2, 3D7, D6, K1, NF54, V1/3, HB3, 7G8, FCB, TM90C2B) were obtained from Malaria Research and Reference Reagent Resource Center (MR4). P. falciparum isolates were maintained with O-positive human blood in an atmosphere of 93% N2, 4% CO2, 3% O2 at 37° C. in complete culturing medium (10.4 g/L RPMI 1640, 5.94 g/L HEPES, 5 g/L albumax II, 50 mg/L hypoxanthine, 2.1 g/L sodium bicarbonate, 10% human serum and 43 mg/L gentamicin). Parasites were cultured in medium until the parasitemia reached 3-8%. Parasitemia was determined by checking at least 500 red blood cells from a Giemsa-stained blood smear. For the compound screening, a parasite suspension at 2.0% parasitemia and 2.0% hematocrit was created with medium. 25 μl of medium was dispensed into 384-well, black, clear-bottom plates. 100 nl of compounds in DMSO was transferred into the assay plates along with control compound (mefloquine). Next, 25 μl of the parasite suspension in medium was dispensed into the assay plates such that the final parasitemia was 1% and the final hematocrit was 1%. The assay plates were incubated for 72 hours at 37° C. […] The assay plates were read with 505 dichroic mirrors with 485-nm excitation and 530-nm emission settings.

[4] = system: P. falciparum 3D7 gametocytes; assay: P. falciparum gametocyte viability assay; format: cell-based; conditions: Plasmodium falciparum, 72 hours, Cell-titer glo, read-out: IC50 erythocytic stage (P. falciparum) sexual (IV & V)
Method: P. falciparum 3D7 stage Ill-V gametocytes were isolated by discontinuous Percoll gradient centrifugation of parasite cultures treated with 50 mM N-acetyl-D-glucosamine for 3 days to kill asexual parasites. Gametocytes (1.0×10^5) were seeded in 96-well plates and incubated with compounds for 72 hours. In vitro anti-gametocyte activity was measured using Cell-titer glo (Promega).

P. falciparum TM90C2B = assay: In vitro P. falciparum blood-stage assay, strain TM90C2B; format: cell-based; conditions: Plasmodium falciparum
Method: as §1

Question: Which EC50 [1] does the source give for `COc1ccc2c3c([nH]c2c1)[C@H](CO)N(C(C)=O)CC31CCN(C(=O)Nc2ccccc2F)CC1` [Compound 15, (R)-2′-acetyl-N-(2-fluorophenyl)-1′-(hydroxymethyl)-7′-methoxy-1′,2′,3′,9′-tetrahydrospiro [piperidine-4,4′-pyrido[3,4-b]indole]-1-carboxamide] here?
Answer: 15 to 178 nM

Question: What about the IC50 [2] of the same compound?
Answer: 459 nM

Question: And the “% Activity” value [3]?
Answer: 94.20%

Question: What about the “% of control” value [3] of the same compound?
Answer: 5.80%

Question: What about the “Avg. Mouse survival” value [3] of the same compound?
Answer: 6.3 days

Question: What about the “Mouse survival in days, M1” value ([3]; mouse M1) of the same compound?
Answer: 6 days

Question: What about the “Parasitized RBC over 100, M1” value ([3]; mouse M1) of the same compound?
Answer: 3.70

Question: And the “Mouse survival in days, M2” value ([3]; mouse M2)?
Answer: 6 days

Question: And the “Parasitized RBC over 100, M2” value ([3]; mouse M2)?
Answer: 3.20

Question: What about the “Mouse survival in days, M3” value ([3]; mouse M3) of the same compound?
Answer: 7 days

Question: And the “Parasitized RBC over 100, M3” value ([3]; mouse M3)?
Answer: 2.80

Question: And the IC50 (P. falciparum Dd2)?
Answer: 73 nM

Question: And the IC50 [4]?
Answer: 643 nM

Question: What about the IC50 (P. falciparum TM90C2B) of the same compound?
Answer: 104 nM
